The record followed here is PubChem BioAssay (NCI).

Test systems include OVCAR-8 ovarian; SK-OV-3 ovarian; KM12 colon; MALME-3M melanoma; MCF7 breast; RXF 393 renal; HT29 colon; MOLT-4 leukemia; SF-539 CNS; TK-10 renal.
Common to all, as to assay: growth of human tumour cells (NCI), 48 h

“And” between values parts separate entries of the source, which are not always exact repeats. Identical values can stand only once.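 Following 48 hours of exposure in 96-well plates, responses at five concentrations were used to interpolate endpoints linearly. Here, GI50 denotes the concentration required for 50% inhibition of growth. Definition used: TGI = concentration required for complete inhibition of growth.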 Where only a bound is given, the exact number is not on record here.

Consider `CCN(Cc1ccc(F)cc1)c1ccc(CO)c(F)c1`, for which the GI50 in the assay with OVCAR-8 ovarian is 16.2 µM; in the assay with SK-OV-3 ovarian, 15.9 µM; in the assay with KM12 colon, 22.9 µM; with MALME-3M melanoma, 18.7 µM; with MCF7 breast, 6.03 µM; with RXF 393 renal it was 5.47 µM. Besides, the GI50 with HT29 colon was 16 µM; in the assay on MOLT-4 leukemia it was 21.2 µM; in the assay on SF-539 CNS it was 18.8 µM; in the assay on TK-10 renal it was 0.625 µM. Also, the TGI was above 84.5 µM in the assay with OVCAR-8 ovarian; 80.7 µM in the assay with SK-OV-3 ovarian; above 71.8 µM in the assay with KM12 colon; 43.9 µM with MALME-3M melanoma; 60.7 µM in the assay on MCF7 breast; 25.9 µM with RXF 393 renal. The TGI with HT29 colon was above 53.9 µM; in the assay on MOLT-4 leukemia, 57.6 µM; with SF-539 CNS, 56.5 µM; with TK-10 renal, 3.07 µM.
Regarding `COc1cc2c3c(n(CCCCN)c(=O)c2cc1OC)-c1cc2c(cc1C3=O)OCO2`, the GI50 was 0.71 µM in the assay on OVCAR-8 ovarian; 1.23 µM in the assay on SK-OV-3 ovarian; 1.72 µM in the assay with KM12 colon; 4.11 µM in the assay with MALME-3M melanoma; 0.0191 µM in the assay with MCF7 breast; 1.47 µM with RXF 393 renal. Moreover, the GI50 in the assay with HT29 colon is 0.586 µM; with MOLT-4 leukemia, 0.114 µM; in the assay on SF-539 CNS, 0.0434 µM; in the assay with TK-10 renal it was 3.84 µM. For the same compound, the TGI in the assay with OVCAR-8 ovarian came to 13.1 µM; in the assay with SK-OV-3 ovarian, 9.41 µM; in the assay on KM12 colon, 6.32 µM; with MALME-3M melanoma it was 11.2 µM; in the assay on MCF7 breast it was 1.13 µM; with RXF 393 renal, 5.72 µM. Further, the TGI in the assay with HT29 colon is 25 µM; in the assay on MOLT-4 leukemia it was 2.95 µM; in the assay with SF-539 CNS it was 0.139 µM; in the assay with TK-10 renal it was 8.48 µM.
In the case of `CCC1CN2C(=N1)c1ccccc1-c1cc(Cl)ccc12` (configuration not stated), the GI50 with OVCAR-8 ovarian is 3.32 µM; with SK-OV-3 ovarian, 4.27 µM; with KM12 colon it was 3.18 µM; in the assay with MALME-3M melanoma, 2.8 µM; in the assay on MCF7 breast, 2.45 µM; in the assay on RXF 393 renal, 3.5 µM. Moreover, the GI50 was 2.01 µM in the assay on HT29 colon, 2.51 µM in the assay with MOLT-4 leukemia, 3.88 µM in the assay with SF-539 CNS and 4.79 µM in the assay on TK-10 renal. In addition, the TGI with OVCAR-8 ovarian stood at 18.4 µM; with SK-OV-3 ovarian it was 24.6 µM; in the assay with KM12 colon it was 12.5 µM; in the assay on MALME-3M melanoma, 8.15 µM; with MCF7 breast, 14.1 µM; in the assay on RXF 393 renal, 15 µM. Further, the TGI in the assay on HT29 colon came out at 7.11 µM; in the assay on MOLT-4 leukemia, 7.16 µM; in the assay on SF-539 CNS, 14.8 µM; with TK-10 renal, 32.8 µM.
For the compound `COc1ccc(/C=C/C(=O)c2ccc(O)c(CN3CCN(c4cc5c(cc4F)c(=O)c(C(=O)O)cn5C4CC4)CC3)c2)cc1`, the GI50 in the assay on OVCAR-8 ovarian was 0.644 µM; in the assay on SK-OV-3 ovarian, 2.56 µM; with KM12 colon, 1.27 µM; with MALME-3M melanoma it was 1.59 µM; in the assay with MCF7 breast, 0.456 µM; in the assay on RXF 393 renal, 1.42 µM. The GI50 in the assay with HT29 colon was 1.08 µM; in the assay with MOLT-4 leukemia, 5.29 µM; with SF-539 CNS, 0.407 µM; in the assay on TK-10 renal, 7.16 µM. Also, the TGI with OVCAR-8 ovarian is above 100 µM; in the assay on SK-OV-3 ovarian, 43.2 µM; with KM12 colon, above 100 µM; in the assay with MALME-3M melanoma, 16.4 µM; in the assay with MCF7 breast it was above 100 µM; in the assay with RXF 393 renal, 60.3 µM. In addition, the TGI was above 100 µM in the assay on HT29 colon, above 100 µM in the assay on MOLT-4 leukemia, above 100 µM in the assay with SF-539 CNS and 74.6 µM in the assay with TK-10 renal.
Regarding `COc1cc(NC(C)CCCN)c2ncccc2c1` (configuration not stated), the TGI in the assay with OVCAR-8 ovarian is above 100 µM; in the assay on SK-OV-3 ovarian it was above 100 µM; with KM12 colon it was above 100 µM; in the assay on MALME-3M melanoma, 35.7 µM and 60.9 µM; in the assay with MCF7 breast it was 31.5 µM; in the assay with RXF 393 renal it was > 79.6 µM and 100 µM. The TGI with HT29 colon is above 95.4 µM; with MOLT-4 leukemia it was above 100 µM; in the assay with SF-539 CNS it was above 100 µM; in the assay on TK-10 renal it was above 100 µM. For the same compound, the GI50 with MALME-3M melanoma is 19.3 µM and 44.4 µM; in the assay with RXF 393 renal, 17.1 µM and 37.4 µM.
In the case of `CCn1cnc(C[C@H](NC(=O)[C@@H](NC(=O)Nc2cc(C(F)(F)F)cc(C(F)(F)F)c2)C(C)C)C(=O)OC)c1`, the GI50 was 1.95 µM with OVCAR-8 ovarian; 2.06 µM in the assay with SK-OV-3 ovarian; 1.89 µM in the assay with KM12 colon; above 10 µM in the assay with MALME-3M melanoma; 1.83 µM in the assay with MCF7 breast; 1.73 µM in the assay on RXF 393 renal. The GI50 in the assay with HT29 colon is 2.02 µM; in the assay with MOLT-4 leukemia it was 2.99 µM; with SF-539 CNS, 3.36 µM; with TK-10 renal it was 1.88 µM. Moreover, the TGI with OVCAR-8 ovarian was 3.74 µM; in the assay on SK-OV-3 ovarian it was 4.41 µM; with KM12 colon it was 3.9 µM; in the assay with MALME-3M melanoma, above 10 µM; in the assay on MCF7 breast, 3.8 µM; in the assay on RXF 393 renal, 3.32 µM. In addition, the TGI in the assay with HT29 colon was 4.1 µM; with MOLT-4 leukemia, 9.35 µM; with SF-539 CNS it was above 10 µM; with TK-10 renal, 3.89 µM.
